The record followed here is patent US12274775B2, “Fatty acid esters as anti-Malassezia agents” (SYMRISE AG, priority 2019, dated 2025).

For one series, the system named is M. globosa CBS 7705. As to the kind of experiment: Ester cleavage by Malassezia cells, GC quantification. The series is classed as cell-based. The settings on record: 32° C. How it is done:
(§1) These two species are the most frequently detected ones on human scalp and skin and their hydrolytic/lipolytic activities on fatty acid esters has not yet been investigated before.
(§2) Malassezia strains were cultivated on selective agar for pathogenic fungi (Merck) and overlaid with a thin layer of cold-sterilized olive oil. After 3 to 5 days, fungal cells were harvested and resuspended in the respective test substance. Cell numbers were determined using a Neubauer counting chamber (cf. Table 12). Sterile Petri dishes (diameter: 3 cm) were prepared containing selective agar for pathogenic fungi, overlaid with 100 μl of the test suspensions and incubated at 32° C.
(§3) After defined incubation times (0, 3, 6, 12, 24, 48, and 72 h), test suspensions were removed from the agar surface by rinsing with 1 ml chloroform and stored under cool conditions in gastight tubes until analysis. Chloroform was removed by evaporation at 30° C. in the fume hood and the remaining liquid mixed with 1 ml isopropanol, transferred in Eppendorf tubes and centrifuged. The supernatant was transferred to new Eppendorf tubes.
(§4) In order to analytically quantify esters and free fatty acid resulting from cleavage by Malassezia enzymes, gas chromatography was used.
(§5) For quantification (range 0.1-10 wt %) a multilevel calibration method with internal standard (ISTD, docosane [C22]; 500 mg in MtBE) was used. An equal amount of corresponding acid, ester and possible side products [0.2-50 mg/10 mL] were mixed with ISTD, diluted to an appropriate concentration and 1 μL [split1:50] was directly used for GC-analysis with the following conditions: GC Agilent 6890 with a 20 m ZB-Wax column [0.20 mm×0.20 μm], injector temperature of 250° C., detector temperature of 275° C., flow gas of 1.3 mL/min hydrogen [constant]. For temperature profile 60° C. to 240° C. with a heating rate of 9° C./min was used.

For a further series, the system named is M. restricta CBS 7877. The series is described as above. The series is classed as cell-based. To be noted: 32° C. How it is done: as §1, §2, §3, §4, §5
A further series concerns M. pachydermatis. Put plainly: Agar dilution test on mDixon agar, minimal inhibitory concentration (MIC). In kind it is cell-based. To be noted: for MIC: Malassezia pachydermatis. How it is done: (§6) The fatty acid esters and their mixtures were tested for growth inhibition against Malassezia. The following reference strains were included:
(§7) Tests were performed on solid media using agar dilution tests. Stock solutions of test substances were prepared in mDixon-Agar (cf. Table 2). Lower test concentrations were obtained by diluting stock solutions with fresh agar.
(§8) Preparation of liquid agar was carried out in temperated water bath. Required amounts of test substances were weighed in 130 ml of Dixon Agar and mixed with fresh Dixon-Agar to reach desired concentrations of test substances. Agar solutions with test substances were then poured into 24 well-plates. The pH value in all assays was maintained at 5.5. Preparation of test substances was done on weight per volume base. All results are expressed in parts per million (1 ppm=0.0001%).
(§9) Briefly, Malassezia strains were cultivated on selective agar for pathogenic fungi (Merck) and overlaid with a thin layer of cold-sterilized olive oil. […] Incubation was carried out at 32° C. over a maximal duration of 14 days with regular inspection and documentation of growth status. Minimal inhibitory concentrations (MICs) were determined as the lowest concentrations of test compound without visible growth. Each experiment was repeated to confirm results.

For a further series, the system named is M. sympodialis. Described as above. The series is classed as cell-based. The settings on record: for MIC: 336 h. Here is the method: as §6, §7, §8, §9
Another series relates to M. restricta. The description is as above. The series is classed as cell-based. The settings on record: for MIC: 336 h. How it is done: as §6, §7, §8, §9
For the next series, the system named is M. globosa. The description is as above. The series is classed as cell-based. To be noted: for MIC: Malassezia globosa. How it is done: as §6, §7, §8, §9
A further series deals with M. furfur. The description is as above. The series is classed as cell-based. The settings on record: for MIC: Malassezia furfur. How it is done: as §6, §7, §8, §9
Series [1] is described as follows: Ester cleavage assays without Malassezia cells. The series is classed as physicochemical. To be noted: until the end of the experiment after 72 hours. How it is done:
as §2, §3, §4
For quantification (range 0.1-10 wt %) a multilevel calibration method with internal standard (ISTD, docosane [C22]; 500 mg in MtBE) was used. […]

The mark [2] stands for this setting: M. globosa CBS 7705, after 6 hours.
Where [3] appears, read: M. globosa CBS 7705, after 12 hours.
The mark [4] stands for this setting: M. restricta CBS 7877, after 6 hours.
[5] abbreviates: M. restricta CBS 7877, after 12 hours.
Where [6] appears, read: 336 h, M. pachydermatis 1892, agar dilution, pH 5.5, 32° C., up to 14 days, read-out: Minimal inhibitory concentration (MIC).
[7] abbreviates: CBS1879, 336 h, M. pachydermatis CBS 1879, agar dilution, pH 5.5, 32° C., up to 14 days, read-out: Minimal inhibitory concentration (MIC).
[8] abbreviates: pH 5.5, M. sympodialis ATCC 42132, pH 5.5, 32° C., up to 14 days, read-out: Minimal inhibitory concentration (MIC).
Setting [9] is: pH 5.5, M. sympodialis CBS 7222, pH 5.5, 32° C., up to 14 days, read-out: Minimal inhibitory concentration (MIC).
The mark [10] stands for this setting: pH 5.5, M. sympodialis CBS 7979, pH 5.5, 32° C., up to 14 days, read-out: Minimal inhibitory concentration (MIC).
Where [11] appears, read: pH 5.5, M. sympodialis DSM 6171, pH 5.5, 32° C., up to 14 days, read-out: Minimal inhibitory concentration (MIC).
Setting [12] is: M. restricta CBS 7877, agar dilution, pH 5.5, 32° C., up to 14 days, read-out: Minimal inhibitory concentration (MIC).
Where [13] appears, read: 336 h, M. globosa PM1, agar dilution, pH 5.5, 32° C., up to 14 days, read-out: Minimal inhibitory concentration (MIC).
Setting [14] is: CBS7705, 336 h, M. globosa CBS 7705, agar dilution, pH 5.5, 32° C., up to 14 days, read-out: Minimal inhibitory concentration (MIC).
Setting [15] is: CBS7966, 336 h, M. globosa CBS 7966, agar dilution, pH 5.5, 32° C., up to 14 days, read-out: Minimal inhibitory concentration (MIC).
Setting [16] is: CBS1878, 336 h, M. furfur CBS 1878, agar dilution, pH 5.5, 32° C., up to 14 days, read-out: Minimal inhibitory concentration (MIC).
Where [17] appears, read: CBS7019, 336 h, M. furfur CBS 7019, agar dilution, pH 5.5, 32° C., up to 14 days, read-out: Minimal inhibitory concentration (MIC).
Setting [18] is: 336 h, pH 5.5, read-out: Minimal inhibitory concentration (MIC).

≈ marks a conversion by molar mass, not a printed value. Like-named read-outs stand apart in the source and are kept apart here.

Take `CCCCCCCC(=O)OCCCO` [3-Hydroxypropyl caprylate]: the ester cleaved in the series with M. globosa CBS 7705 (setting [2]) is 75%; in the series with M. globosa CBS 7705 (setting [3]) it was 90%; in the series with M. restricta CBS 7877 (setting [4]), 21%; in the series on M. restricta CBS 7877 (setting [5]), 65%. The MIC in the series on M. pachydermatis (setting [6]) stood at 500 µg/mL (≈ 2.47 mM); in the series with M. pachydermatis (setting [7]), 330 µg/mL (≈ 1.63 mM); with M. sympodialis (setting [8]), 1000 µg/mL (≈ 4.94 mM); in the series with M. sympodialis (setting [9]), 1000 µg/mL (≈ 4.94 mM); in the series on M. sympodialis (setting [10]), 2000 µg/mL (≈ 9.89 mM); in the series with M. sympodialis (setting [11]), 2000 µg/mL (≈ 9.89 mM). The MIC with M. restricta (setting [12]) worked out at 1000 µg/mL (≈ 4.94 mM); in the series with M. globosa (setting [13]) it was 500 µg/mL (≈ 2.47 mM); with M. globosa (setting [14]), 1000 µg/mL (≈ 4.94 mM); with M. globosa (setting [15]) it was 1000 µg/mL (≈ 4.94 mM); in the series on M. furfur (setting [16]), 2000 µg/mL (≈ 9.89 mM); in the series with M. furfur (setting [17]), 2000 µg/mL (≈ 9.89 mM). Further, the “free fatty acid detected in assays without Malassezia cells” value in series [1] is “no caprylic acid was detected”.
As to `C=CCCCCCCCCC(=O)OCCCO` [3-Hydroxypropyl undecylenoate], the ester cleaved with M. globosa CBS 7705 (setting [2]) is on record as 95%; with M. globosa CBS 7705 (setting [3]), 99.5%; in the series with M. restricta CBS 7877 (setting [4]) it was 56%; in the series with M. restricta CBS 7877 (setting [5]), 96%. Further, the MIC in the series with M. pachydermatis (setting [6]) is 1000 µg/mL (≈ 4.13 mM); in the series on M. pachydermatis (setting [7]), 2000 µg/mL (≈ 8.25 mM); in the series on M. sympodialis (setting [8]), 2000 µg/mL (≈ 8.25 mM); with M. sympodialis (setting [9]) it was 4000 µg/mL (≈ 16.5 mM); with M. sympodialis (setting [10]) it was 1000 µg/mL (≈ 4.13 mM); with M. sympodialis (setting [11]), 2000 µg/mL (≈ 8.25 mM). Besides, the MIC in the series with M. restricta (setting [12]) came out at 1000 µg/mL (≈ 4.13 mM); in the series on M. globosa (setting [13]), 2000 µg/mL (≈ 8.25 mM); with M. globosa (setting [14]), 1000 µg/mL (≈ 4.13 mM); in the series on M. globosa (setting [15]), 2000 µg/mL (≈ 8.25 mM); in the series on M. furfur (setting [16]), 8000 µg/mL (≈ 33 mM); in the series with M. furfur (setting [17]), 8000 µg/mL (≈ 33 mM). In addition, the “free fatty acid detected in assays without Malassezia cells” value in series [1] is reported as “no undecylenic acid was detected”.
Take `C=CCCCCCCCCC(=O)O` [Undecylenic acid, 10-undecylenic acid]: the MIC in the series on M. pachydermatis (setting [18]) stood at 500 µg/mL (≈ 2.71 mM); in the series with M. pachydermatis (CBS1879, 336 h, pH 5.5, read-out: Minimal inhibitory concentration (MIC)), 1000 µg/mL (≈ 5.43 mM); with M. sympodialis (pH 5.5, read-out: Minimal inhibitory concentration (MIC), M. sympodialis ATCC 42132, pH 5.5, 32° C., up to 14 days) it was 100 µg/mL (≈ 0.543 mM); in the series on M. sympodialis (pH 5.5, read-out: Minimal inhibitory concentration (MIC), M. sympodialis CBS 7222, pH 5.5, 32° C., up to 14 days) it was 100 µg/mL (≈ 0.543 mM); in the series on M. sympodialis (pH 5.5, read-out: Minimal inhibitory concentration (MIC), M. sympodialis CBS 7979, pH 5.5, 32° C., up to 14 days), 200 µg/mL (≈ 1.09 mM); with M. sympodialis (pH 5.5, read-out: Minimal inhibitory concentration (MIC), M. sympodialis DSM 6171, pH 5.5, 32° C., up to 14 days) it was 100 µg/mL (≈ 0.543 mM). For the same compound, the MIC was 500 µg/mL (≈ 2.71 mM) in the series with M. restricta (pH 5.5, read-out: Minimal inhibitory concentration (MIC)); 677 µg/mL (≈ 3.67 mM) with M. globosa (setting [18]); 330 µg/mL (≈ 1.79 mM) with M. globosa (CBS7705, 336 h, pH 5.5, read-out: Minimal inhibitory concentration (MIC)); 2000 µg/mL (≈ 10.9 mM) in the series with M. globosa (CBS7966, 336 h, pH 5.5, read-out: Minimal inhibitory concentration (MIC)); 2000 µg/mL (≈ 10.9 mM) in the series with M. furfur (CBS1878, 336 h, pH 5.5, read-out: Minimal inhibitory concentration (MIC)); greater than 2000 µg/mL in the series with M. furfur (CBS7019, 336 h, pH 5.5, read-out: Minimal inhibitory concentration (MIC)).
In the case of PEG9-caprylate, the “Minimal inhibitory concentration (MIC)” value stood at 4000 ppm with M. pachydermatis (M. pachydermatis 1892, agar dilution, pH 5.5, 32° C., up to 14 days); 2000 ppm in the series on M. pachydermatis (M. pachydermatis CBS 1879, agar dilution, pH 5.5, 32° C., up to 14 days); 10000 ppm in the series on M. sympodialis (M. sympodialis ATCC 42132, pH 5.5, 32° C., up to 14 days); 10000 ppm in the series on M. sympodialis (M. sympodialis CBS 7222, pH 5.5, 32° C., up to 14 days); 8000 ppm in the series with M. sympodialis (M. sympodialis CBS 7979, pH 5.5, 32° C., up to 14 days); 8000 ppm in the series with M. sympodialis (M. sympodialis DSM 6171, pH 5.5, 32° C., up to 14 days). Further, the “Minimal inhibitory concentration (MIC)” value in the series with M. restricta (M. restricta CBS 7877, agar dilution, pH 5.5, 32° C., up to 14 days) is reported as 2000 ppm; in the series on M. globosa (M. globosa CBS 7966, agar dilution, pH 5.5, 32° C., up to 14 days), 2000 ppm; with M. globosa (M. globosa PM1, agar dilution, pH 5.5, 32° C., up to 14 days), 2000 ppm; with M. furfur (M. furfur CBS 1878, agar dilution, pH 5.5, 32° C., up to 14 days) it was 20000 ppm; in the series on M. furfur (M. furfur CBS 7019, agar dilution, pH 5.5, 32° C., up to 14 days) it was 10000 ppm.
